# Data reported in patent US8613948B2, “Treatment of faecal incontinence and other conditions with 1R, 2S-methoxamine” (Norgine BV, priority 2001, dated 2013).
# Read-outs that look alike come from different tables or passages of the source.
# What was measured:
# [1] = system: pig internal anal sphincter muscle; assay: In vitro contraction of internal anal sphincter muscle strips in superfusion organ bath; format: cell-based; details: for EC50: Sus scrofa; for contraction of smooth muscle strips from the IAS: dose range 10^−2M to 10^−8M
# Experimental: Tissue was obtained from female Large White pigs from a local abattoir. Pieces of internal anal sphincter muscle were cut and the tissue was transferred immediately to Krebs solution at 4° C. (120 mM NaCl, 5.9 mM KCl, 15.4 mM Na2HCO3, 1.2 mM NaH2PO4, 2.5 mM CaCl2, 1.2 mM MgCl2, 11.5 mM glucose, equilibrated with 97% oxygen and 3% carbon dioxide to maintain the pH at 7.4±0.05). The epithelium of the anal canal was removed along with the submucosa. Strips of the internal anal sphincter (IAS) were cut, each measuring approximately 1×1×7 mm, weighing 2 mg to 8 mg and containing parallel muscle bundles. Fine 5-0 silk ligatures were tied to each end and the strips mounted for isometric tension recording in superfusion organ baths (capacity 0.2 ml)^19 as shown in FIG. 1. The muscle strip 1 is held by a thread 2 to secure it in position within the Perspex jacket 3. The strips were perfused continuously with Krebs solution (37° C.) at a rate of 1 ml/min introduced via an inflow 4 and exiting via an overflow 5. This apparatus allows six strips to be studied simultaneously. The strips were initially loaded with 1 g tension and allowed to equilibrate for at least 90 minutes. Tension was measured by Pioden dynamometer UF1 transducer (Pioden Controls, Canterbury, UK) involving a tension transducer 6 and ring electrodes 7 and 7a, and recorded both on a six channel Tekman 900 pen recorder (Tekman Electronics, Learnington Spa, UK) and using Chart v3.6 and MacLab Data Acquisition System (AD Instruments, Australia).
# Phenylephrine (Sigma Chemical Co., Poole, UK), methoxamine racemate and the four methoxamine isomers were dissolved in Krebs solution and tested for their effect on IAS tone. Methoxamine racemate, that is to say, an equimolar mixture of the four isomers, was produced by Prosyth Limited, Acton, Sudbury, Suffolk. The four isomers (called peaks 1 to 4), were separated as described in Example 3. Peak 2 is 1R,2S-methoxamine. The 1R,2S isomer was also synthesised as described in Example 4. It has been confirmed by crystallography that peak 2 is 1R,2S-methoxamine.
# IAS strips developed intrinsic tone during the equilibrium period. After equilibration increasing concentrations of each of the test compounds were added for 20 second periods, with intervening washout periods of at least ten minutes, until the tone had returned to baseline.
# Results are expressed as mean (standard error of the mean) and the number of surgical specimens from which these strips were derived. A maximum of six strips were used from each pig for each test compound.
# Test compound-induced increases in tone were calculated by taking the peak tone after application of the test compound and […]. This figure was then expressed as a percentage of maximal increase in tone seen across the dose range used (10^−2M to 10^−8M). All analysis was performed using Chart v3.6 software.
# EC50 values were calculated by plotting concentration-response curves for each muscle strip. The dose causing 50% of maximal contraction was calculated by linear regression. EC50 values for different drugs were compared using a two-tailed t-test, assuming unequal variance and with p<0.05 considered significant.
# human subjects = details: cited from earlier work
# [2] = system: patients with incontinence; details: cited from earlier work
# [3] = IAS smooth muscle strips, n=24(4), read-out: EC50 values
# [4] = pig IAS strips, Table 1, read-out: EC50 value μM (±SE)
SMILES,"EC50 [1, 3]","EC50 [1, 4]",contraction of smooth muscle strips from the IAS [1],"duration of rise in resting anal pressure (median) (human subjects; 10% gel, normal human subjects)","rise in resting anal pressure (human subjects; 10% to 20% by weight gels, patients with low resting pressures and incontinence)","rise in resting anal pressure (human subjects; 30% and 40% gels, patients with low resting pressures and incontinence)","rise in resting anal pressure (human subjects; gel comprising 10% by weight, applied to the anus of normal human subjects)","subjective improvement in continence ([2]; 10% gel, patients with faecal leakage after ileoanal pouch construction)","incontinence scores, resting anal canal pressure or anodermal blood flow ([2]; 10% gel, randomised controlled trial, 36 patients with incontinence)",local side effect ([2]; topical preparations of the order of 30-40% by weight)
"COc1ccc(OC)c(C(O)C(C)N)c1 (racemic) [methoxamine racemate, 2-amino-1-(2,5-dimethoxyphenyl)-1-propanol]",0.058 µM,58.3 µM,caused a dose-dependent contraction,–,–,–,–,–,–,–
CNC[C@H](O)c1cccc(O)c1 [Phenylephrine],75 µM,74.7 µM,caused a dose-dependent contraction,7 h,no significant rise in resting anal pressure,increases did achieve statistical significance,33%,significantly greater subjective improvement in continence compared to placebo,no significant overall improvements,perianal burning has been reported
